SMILES strings stand for the structures. pIC50: −log10 of the molar value. “And” between values parts separate entries of the source, which are not always exact repeats. Equal values may be shown once.

The assay has as its target T1, Muscarinic acetylcholine receptor M5 (Homo sapiens, UniProt P08912).
T1 sequence (P08912 whole entry): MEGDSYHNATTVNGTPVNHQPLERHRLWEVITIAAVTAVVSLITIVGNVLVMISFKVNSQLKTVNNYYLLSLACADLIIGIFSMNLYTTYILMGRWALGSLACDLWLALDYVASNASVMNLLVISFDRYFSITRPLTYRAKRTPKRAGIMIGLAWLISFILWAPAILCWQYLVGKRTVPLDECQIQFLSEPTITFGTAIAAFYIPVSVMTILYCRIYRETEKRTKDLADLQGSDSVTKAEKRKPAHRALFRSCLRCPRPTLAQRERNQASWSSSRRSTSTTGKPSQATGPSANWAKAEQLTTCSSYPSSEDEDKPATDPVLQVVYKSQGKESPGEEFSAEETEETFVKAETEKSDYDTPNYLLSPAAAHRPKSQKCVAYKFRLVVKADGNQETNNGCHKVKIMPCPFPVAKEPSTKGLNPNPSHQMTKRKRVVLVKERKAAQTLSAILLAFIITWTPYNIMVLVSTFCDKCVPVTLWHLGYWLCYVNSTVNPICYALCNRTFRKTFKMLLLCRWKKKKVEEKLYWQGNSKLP
Put plainly: Negative allosteric modulation of human muscarinic acetylcholine receptor M5 expressed in CHO cells assessed as inhibition of acetylcholine-induced calcium mobilization incubated for 150 secs prior to acetylcholine induction by Fluo4AM staining-based fluorescence assay. A general note: Calcium flux is commonly read through the fluorescence of an indicator in the cells.
Broadly, the pIC50 is the negative decadic logarithm of the IC50, by convention in mol/L. Turning to `O=C(c1cc(F)c(F)c(F)c1)N1CCN2C(=O)c3ccccc3C12c1ccc2c(c1)OCO2` (racemic), the negative-log IC50 (pIC50) was 6.00.
Take `COc1ccc(C23c4ccccc4C(=O)N2CCN3C(=O)c2ccc(F)c(F)c2)cc1F` (racemic): the pIC50 was 5.48.
Take `O=C(c1ccc(F)c(F)c1)N1CCN2C(=O)c3ccccc3C12c1ccncc1` (racemic): the negative logarithm of the IC50 (pIC50) was less than 5.00.
As for `O=C(c1ccc(F)c(F)c1)N1CCN2C(=O)c3ccccc3C12c1ccc(Oc2ccccc2)cc1` (racemic), the pIC50 was less than 5.00.
Under `COc1cc(C23c4ccccc4C(=O)N2CCN3C(=O)c2cc(F)c(F)c(F)c2)ccc1C` (racemic) stands 6.05; under `O=C(c1ccc(F)c(F)c1)N1CCN2C(=O)c3ccccc3C12C1CC1` (racemic), less than 5.00; under `COc1cccc(C(=O)N2CCN3C(=O)c4ccccc4C23c2ccc(Cl)cc2)c1` (racemic), 5.18.
As for `COc1ccc(C23c4ccccc4C(=O)N2CCN3C(=O)c2ccc(F)c(F)c2)cc1Cl` (racemic), the pIC50 is 5.26.
As for `O=C(c1ccc(F)c(F)c1)N1CCN2C(=O)c3ccccc3C12C1CCCC1` (racemic), the pIC50 is 5.62.
With `COc1ccccc1C12c3ccccc3C(=O)N1CCN2C(=O)c1ccc(F)c(F)c1` (racemic), the negative logarithm of the IC50 (pIC50) was 5.25 and 5.26.
Consider `O=C(c1ccc(F)nc1)N1CCN2C(=O)c3ccccc3C12c1ccc(Cl)cc1` (racemic), for which the negative-log IC50 (pIC50) is less than 5.00.
Next, `CC(C)Oc1ccc(C(=O)N2CCN3C(=O)c4ccccc4C23c2ccc(Cl)cc2)cc1` (racemic): 6.10; `CC(C)Oc1ccc(C(=O)N2CCN3C(=O)c4ccccc4C23c2ccc3c(c2)OCO3)cc1` (racemic): 5.96; `O=C(c1ccc(F)c(F)c1)N1CCN2C(=O)c3ccccc3C12c1ccc2c(c1)OCO2` (racemic): 5.89.
For `COc1ccc(C23c4ccccc4C(=O)N2CCN3C(=O)c2ccc(F)c(F)c2)cc1C` (racemic), the pIC50 is 5.92.
As to `O=C(c1ccc(F)c(F)c1)N1CCN2C(=O)c3ccccc3C12c1ccccn1` (racemic), the pIC50 was less than 5.00.
For `COc1ccc(C(=O)N2CCN3C(=O)c4ccccc4C23c2ccc(Cl)cc2)cc1` (racemic), the pIC50 was 5.74.
Turning to `COc1ccccc1C(=O)N1CCN2C(=O)c3ccccc3C12c1ccc(Cl)cc1` (racemic), the pIC50 was less than 5.00.
As to `COc1cc(C23c4ccccc4C(=O)N2CCN3C(=O)c2ccc(F)c(F)c2)ccc1Cl` (racemic), the negative logarithm of the IC50 (pIC50) is 5.70.
`COc1cc(C23c4ccccc4C(=O)N2CCN3C(=O)c2cc(F)c(F)c(F)c2)ccc1F` (racemic): the negative logarithm of the IC50 (pIC50) is 6.15.
On to `COc1cc(C23c4ccccc4C(=O)N2CCN3C(=O)c2ccc(OC(C)C)cc2)ccc1Cl` (racemic), for which the negative-log IC50 (pIC50) was 5.19.
For `O=C(c1ccc(F)c(F)c1)N1CCN2C(=O)c3ccccc3C12C1CCC1` (racemic), the pIC50 was less than 5.00.
Next, `CN(C)c1ccc(C(=O)N2CCN3C(=O)c4ccccc4C23c2ccc(Cl)cc2)cc1` (racemic): less than 5.00; `CCOc1ccc(C23c4ccccc4C(=O)N2CCN3C(=O)c2ccc(F)c(F)c2)cc1` (racemic): 5.49.
Turning to `COc1ccc(C23c4ccccc4C(=O)N2CCN3C(=O)c2ccc(OC(C)C)cc2)cc1F` (racemic), the negative logarithm of the IC50 (pIC50) was 5.49.
Under `O=C(c1ccc(F)c(F)c1)N1CCN2C(=O)c3ccccc3C12C1CCOCC1` (racemic) stands less than 5.00.
With `COc1ccc(C23c4ccccc4C(=O)N2CCN3C(=O)c2cc(F)c(F)c(F)c2)cc1Cl` (racemic), the pIC50 was 5.85.
Next, `CC(C)Oc1ccc(C23c4ccccc4C(=O)N2CCN3C(=O)c2cc(F)c(F)c(F)c2)cc1` (racemic): 5.62.
For the molecule `COc1cc(C23c4ccccc4C(=O)N2CCN3C(=O)c2ccc(F)c(F)c2)ccc1F` (racemic), the pIC50 was 5.57.
For `COc1cccc(C23c4ccccc4C(=O)N2CCN3C(=O)c2ccc(F)c(F)c2)c1` (racemic), the pIC50 is 5.80.
